Consider one compound from patent US20090111795A1, “Multimers of Heterocyclic Compounds and Their Use” (priority 2005, published 2009).

On to `CCOC(=O)C1=C(C)N(c2cccc(C(F)(F)F)c2)C(=O)N(CC(=O)NCC[N+](C)(C)CCNC(=O)CN2C(=O)N(c3cccc(C(F)(F)F)c3)C(C)=C(C(=O)OCC)[C@H]2c2ccc(C#N)cc2)[C@@H]1c1ccc(C#N)cc1.O=C([O-])CCC(=O)O`, for which the melting point fell in the range of 138 to 143 °C.
